US5084082A, “Soybean plants with dominant selectable trait for herbicide resistance” (priority 1990, dated 1992)

Columns and labels:
[1] = test system: Williams 82; experiment: Postemergence herbicide spray test of W4-4 (Table VII-A); type: in vivo, soybean; conditions: two weeks after treatment
Procedure: (§1) To investigate this hypothesis, a postemergence herbicide spray test was conducted to compare the reaction of W4-4 to both W20 and wild-type Williams. The applicant was particularly interested in the resistance of W4-4 to herbicide treatments that were injurious to both Williams and W20 in a previous test (Table VII). […] Twenty-four plants each of W4-4, W20, and Williams were planted in separate 10 cm pots and allowed to grow to the second trifoliolate stage. Each pot constituted a single experimental unit receiving a single herbicide treatment. Herbicide treatments (Table VIIA) were applied as described for the first postemergence test and were replicated twice. Control plants were sprayed with the spray carrier solution only (water with 0.25% X77 surfactant). At two weeks after treatment, each plant was rated for % herbicide injury as described in Table VIII. Analysis of variance on injury ratings was performed separately for each herbicide to calculate treatment means and standard errors. Fisher's least significant difference (LSD) was used to determine the significance of line means differences at each herbicide rate using the 95% level of confidence. […]

[2] = test system: mutant W20; experiment: as above; type: in vivo, soybean; conditions: two weeks after treatment
Procedure: as §1

[3] = test system: Mutant W4-4; experiment: as above; type: in vivo, soybean; conditions: two weeks after treatment
Procedure: as §1

[4] = test system: Williams; experiment: Seed soak test with Compound 8; type: in vivo, soybean; conditions: seeds soaked 16 hours in 2 ppm solution, within two weeks of planting
Procedure: (§2) The original W4-4 M2 plant was allowed to self pollinate, mature, and produced a family of M3 seeds. An M3 progeny test was then conducted to determine if the new resistance phenotype was heritable and if the M3 family was true-breeding or segregating for the new resistance trait. The M3 progeny of W4-4 were screened for resistance with the same seed soak technique used to select the original W4-4 M2 plant. Twenty seeds each of the W4-4 M3 family, W20 line, and Williams line were soaked for 16 hours in a solution of 2 ppm of Compound 8. Twenty additional seeds of Williams were soaked for 16 hours in plain tap water as a control treatment. Treated seeds were then washed for two minutes in running water. Each seed was then planted in a separate pot for ease of observation.

[5] = test system: W4-4 M3 family; experiment: Seed soak test with Compound 8; type: in vivo, soybean; conditions: W4-4 M3, seeds soaked 16 hours in 2 ppm solution, within two weeks of planting
Procedure: as §2

[6] = test system: Acetolactate synthase (ALS) from leaves of Williams 82; experiment: Test D ALS assay with chlorsulfuron; type: biochemical, soybean
Procedure: (§3) Acetolactate synthase (ALS) was extracted from leaves of soybean plants growing vegetatively. The leaves were homogenized in 4 volumes of buffer containing 100 mM hepes (pH 7.5), 1 mM sodium pyruvate, 0.5 mM magnesium chloride, 0.5 mM thiamine pyrophosphate, […], 10% glycerol, 5% PVPP, and 0.2% mercaptoethanol. The homogenate was filtered through cheese cloth and centrifuged at 20,000 g for 20 min. ALS was precipitated from the supernatant with ammonium sulfate. The enzyme was collected between 20 and 60% saturation by centrifugation at 20,000 g for 20 min. The pellet was resuspended in buffer containing 100 mM Hepes, 1 mM sodium pyruvate, and 0.5 mM magnesium chloride, and desalted on PD-10 columns (Pharmacia) equilibrated with the same buffer. ALS assays were carried out in a final volume of 0.5 mL at 30° C. The final reaction mixture contained 100 mM Hepes (pH 7.5), 1 mM magnesium chloride, 60 mM sodium pyruvate, 0.4 mM thiaminepyrophosphate, […], and various concentrations of chlorsulfuron. The assays were initiated with the addition of enzyme ([…]) and terminated with the addition of […] of 6N sulfuric acid. The acidified reaction mixture was heated to 60° C. for 15 min, after which 0.5 mL of 0.5% (W/V) creatine and 0.5 mL of 5% (W/V) napthol (freshly prepared in 2.5 N sodium hydroxide) were added. The reaction mixtures were heated for an additional 15 min at 60° C., and the absorbance was read at 525 nm. Data are expressed in terms of % control (minus Compound 1) activity and are the average of two replications. Fisher's least significant difference (LSD) value (at the 95% level of confidence) was calculated for each Compound 1 concentration to determine the significance of genotype mean differences.

[7] = test system: Acetolactate synthase (ALS) from leaves of W19; experiment: Test D ALS assay with chlorsulfuron; type: biochemical, soybean
Procedure: as §3

[8] = test system: Acetolactate synthase (ALS) from leaves of W20; experiment: Test D ALS assay with chlorsulfuron; type: biochemical, soybean
Procedure: as §3

[9] = test system: Acetolactate synthase (ALS) from leaves of W28; experiment: Test D ALS assay with chlorsulfuron; type: biochemical, soybean
Procedure: as §3

[10] = test system: Acetolactate synthase (ALS) from leaves of W23; experiment: Test D ALS assay with chlorsulfuron; type: biochemical, soybean
Procedure: as §3

[11] = test system: wild type soybeans; experiment: Pilot studies, threshold concentration in hydroponic system; type: in vivo, soybean; conditions: 100 mg/L used to irrigate the hydroponic system
Source text: (§4) The same sulfonylurea concentrations would select only highly resistant plants.

[12] = test system: mutants that have heritable sulfonylurea tolerance; experiment: as above; type: in vivo, soybean; conditions: sulfonylurea tolerant mutants, 100 mg/L used to irrigate the hydroponic system
Source text: as §4

Structure (SMILES): COC(=O)c1cccnc1S(=O)(=O)NC(=O)Nc1nc(OC)cc(OC)n1 [Compound 8, Methyl 2-[[[[(4,6-dimethoxy-2-pyrimidinyl)amino]carbonyl]amino]sulfonyl]-3-pyridinecarboxylate]
- mean % injury ([1]; WM82, 4 g/ha postemergence): 90%
- mean % injury ([1]; WM82, 16 g/ha postemergence): 95%
- mean % injury ([1]; WM82, 32 g/ha postemergence): 95%
- mean % injury ([2]; W20, 4 g/ha postemergence): 90%
- mean % injury ([2]; W20, 16 g/ha postemergence): 93%
- mean % injury ([2]; W20, 32 g/ha postemergence): 95%
- mean % injury ([3]; W4-4, 4 g/ha postemergence): 48%
- mean % injury ([3]; W4-4, 16 g/ha postemergence): 48%
- mean % injury ([3]; W4-4, 32 g/ha postemergence): 65%
- seedling development after seed soak [4]: had not started to form true leaves
- seedling development after seed soak [5]: had developed both unifoliolate and trifoliolate leaves

Structure (SMILES): COc1nc(C)nc(NC(=O)NS(=O)(=O)c2ccccc2Cl)n1 [Compound 1, 2-chloro-N-[[(4-methoxy-6-methyl-1,3,5-triazin-2-yl)amino]carbonyl]benzenesulfonamide]
- uninhibited ALS activity (% of control) ([6]; WM 82, chlorsulfuron 10 mg/l-l): 41.1 % of control
- uninhibited ALS activity (% of control) ([6]; WM 82, chlorsulfuron 20 mg/l-l): 26.3 % of control
- uninhibited ALS activity (% of control) ([6]; WM 82, chlorsulfuron 50 mg/l-l): 15.0 % of control
- uninhibited ALS activity (% of control) ([6]; WM 82, chlorsulfuron 100 mg/l-l): 11.1 % of control
- uninhibited ALS activity (% of control) ([6]; WM 82, chlorsulfuron 200 mg/l-l): 8.5 % of control
- uninhibited ALS activity (% of control) ([7]; W19, chlorsulfuron 10 mg/l-l): 60.7 % of control
- uninhibited ALS activity (% of control) ([7]; W19, chlorsulfuron 20 mg/l-l): 54.5 % of control
- uninhibited ALS activity (% of control) ([7]; W19, chlorsulfuron 50 mg/l-l): 48.7 % of control
- uninhibited ALS activity (% of control) ([7]; W19, chlorsulfuron 100 mg/l-l): 45.7 % of control
- uninhibited ALS activity (% of control) ([7]; W19, chlorsulfuron 200 mg/l-l): 40.8 % of control
- uninhibited ALS activity (% of control) ([8]; W20, chlorsulfuron 10 mg/l-l): 50.6 % of control
- uninhibited ALS activity (% of control) ([8]; W20, chlorsulfuron 20 mg/l-l): 35.2 % of control
- uninhibited ALS activity (% of control) ([8]; W20, chlorsulfuron 50 mg/l-l): 31.1 % of control
- uninhibited ALS activity (% of control) ([8]; W20, chlorsulfuron 100 mg/l-l): 20.8 % of control
- uninhibited ALS activity (% of control) ([8]; W20, chlorsulfuron 200 mg/l-l): 19.0 % of control
- uninhibited ALS activity (% of control) ([9]; W28, chlorsulfuron 10 mg/l-l): 54.6 % of control
- uninhibited ALS activity (% of control) ([9]; W28, chlorsulfuron 20 mg/l-l): 46.1 % of control
- uninhibited ALS activity (% of control) ([9]; W28, chlorsulfuron 50 mg/l-l): 42.8 % of control
- uninhibited ALS activity (% of control) ([9]; W28, chlorsulfuron 100 mg/l-l): 36.4 % of control
- uninhibited ALS activity (% of control) ([9]; W28, chlorsulfuron 200 mg/l-l): 34.3 % of control
- uninhibited ALS activity (% of control) ([10]; W23, chlorsulfuron 10 mg/l-l): 55.3 % of control
- uninhibited ALS activity (% of control) ([10]; W23, chlorsulfuron 20 mg/l-l): 46.3 % of control
- uninhibited ALS activity (% of control) ([10]; W23, chlorsulfuron 50 mg/l-l): 38.9 % of control
- uninhibited ALS activity (% of control) ([10]; W23, chlorsulfuron 100 mg/l-l): 37.4 % of control
- uninhibited ALS activity (% of control) ([10]; W23, chlorsulfuron 200 mg/l-l): 34.0 % of control
- leaf and root development [11]: consistently stunt or inhibit leaf and root development
- leaf formation [12]: allow unifoliolate (but not trifoliolate) formation
